# Results published in patent US5916774A, “D-aminoacylase” (Daicel Chemical Industries, Ltd., priority 1997, dated 1999).
# Like-named read-outs stand apart in the source and are kept apart here.
# Assays:
# [1] = tested on: Amycolatopsis orientalis IFO 12806; experiment: Induction of D-aminoacylase production by inducers in culture; format: cell-based; conditions: for Specific activity / Total activity / Activity: crude enzyme solution of cells cultured with 0.1% inducer in ISP-2 medium, 30° C., 72 h; for Activity: 20 mM N-acetyl-D-methionine, pH 7.5, 10 min
# Procedure: This microbial strain was cultured in ISP-2 liquid medium as used in Example 1 supplemented with or without N-acetyl-DL-methionine or DL-valine (Kanto Kagaku) (0.1% each) as the enzyme inducer with shaking at 160 rpm at 30° C. for 72 h.
# After the incubation, the culture was centrifuged at 8000 rpm (7000×g) for 20 min with a Hitachi Koki refrigerated centrifuge to collect microbial cells. The cells were washed with 50 mM Tris-HCl buffer (pH 7.5) and then centrifuged again with the same centrifuge to harvest the cells to be used in the following processes. The cells were stored at -20° C.
# The stored cells were suspended in 20 ml of 50 mM Tris-HCl (pH 7.5), ultrasonicated at 190 W for 10 min, and centrifuged with a Hitachi Koki refrigerated centrifuge at 14,000 rpm (20,000×g) for 20 min. The supernatant thus obtained was used as the crude enzyme solution.
# The enzymatic reaction was performed in a total volume of 1.0 ml of a reaction system containing 20 mM N-acetyl-D-methionine, 50 mM Tris-HCl buffer (pH 7.5), 1 mM CoCl2, and 100 μl of the enzyme solution at 30° C. for 10 min. The reaction was terminated by adding a TCA reaction terminating solution.
# [2] = tested on: D-aminoacylase derived from Amycolatopsis orientalis IFO 12806; experiment: Influences of various metallic salts and reagents on D-aminoacylase activity; format: biochemical
# Procedure: (§1) The enzyme activity was assayed according to TNBS method [Tokuyama, S., Hatano, K. and Takahashi, T., Biosci. Biotech. Biochem. 58, pp24 (1994)]. That is, a sample solution containing amino acid was added to 0.5 ml of the solution (C) (0.1M Na2 B4 O7), and brought up to a volume of 1.0 ml. To this mixture was added […] of 0.11M TNBS solution, and the resulting mixture was quickly mixed. Five min thereafter, absorption at 420 nm was measured.
# In Table 5, the term "PCMB" means p-chloromercuribenzoic acid.
# [3] = tested on: D-aminoacylase derived from Amycolatopsis orientalis IFO 12806; experiment: Substrate specificity of D-aminoacylase; format: biochemical; conditions: 20 mM substrate, 3 h; for Action of the enzyme on the substrate: pH 7.5, 30° C.; for Specific activity (%): N-acetyl-D-methionine taken as 100%, 50 mM Tris-HCl pH 7.5, 30° C.
# Procedure: The enzymatic reaction was carried out in a total volume of 1.0 ml of a reaction system containing 20 mM N-acetyl-D-methionine (Sigma), 50 mM Tris-HCl buffer (pH 7.5), 1 mM CoCl2, and 100 μl of the enzyme solution at 30° C. for 60 min. The reaction was terminated by adding 0.5 ml of a TCA reaction terminating solution according to Tsai et al. (containing 0.11M trichloroacetic acid, 0.22M sodium acetate, and 0.33M acetic acid).
# as §1
# Substrate specificity of this enzyme was compared to, taking substrate specificity for N-acetyl-D-methionine as 100%, N-acetyl-D-valine, N-acetyl-D-phenylalanine, N-acetyl-D-leucine, N-acetyl-D-tryptophan, N-acetyl-D-asparagine, N-acetyl-L-methionine, N-acetyl-D-leucine, and N-acetyl-L-valine. The enzyme activity was assayed in 50 mM Tris-HCl buffer (pH 7.5) containing 100 μl of the enzyme solution and 20 mM of each substrate (total volume of 1.0 ml) at 30° C. for 3 h.
# [4] = metallic salt 1 mM, pH 7.5, 30° C., 60 min, no addition 0.25
# [5] = metallic salt 10 mM, no addition = 100
# [6] = metallic salt 10 mM, pH 7.5, 30° C., 60 min, no addition 0.25
# [7] = metallic salt 1 mM, no addition = 100
# [8] = reagent 1 mM, no addition = 100
# [9] = reagent 1 mM, pH 7.5, 30° C., 60 min, no addition 0.22
# [10] = reagent 10 mM, no addition = 100
# [11] = reagent 10 mM, pH 7.5, 30° C., 60 min, no addition 0.22
Action of the enzyme on the substrate [3],Specific activity (%) [3] [%],SMILES,"Methionine produced, concentration 1 mM [2, 4] [mM]","Specific activity (%), concentration 10 mM [2, 5] [%]","Methionine produced, concentration 10 mM [2, 6] [mM]","Specific activity (%), concentration 1 mM [2, 7] [%]",also measured
–,–,CC(C)C(N)C(=O)O (racemic) [DL-valine],–,–,–,–,Induction of D-aminoacylase ([1]; DL-valine compared with N-acetyl-DL-methionine as inducer): induced more strongly; Specific activity [1]: 144.0 mU/mg; Total activity [1]: 36.0 U; Activity [1]: 3.9 U/ml
–,–,CSCCC(NC(C)=O)C(=O)O (racemic) [N-acetyl-DL-methionine],–,–,–,–,Specific activity [1]: 36.0 mU/mg; Total activity [1]: 5.1 U; Activity [1]: 1.6 U/ml
–,–,"[Ba+2].[Cl-].[Cl-] [Ba^2+ (BaCl2), BaCl2]",0.19,176,0.44,–,–
–,–,"[Ca+2].[Cl-].[Cl-] [Ca^2+ (CaCl2), CaCl2]",0.45,208,0.52,180,Effect on enzyme activity ([2]; 1 mM): significantly promoted; Effect on enzyme activity ([2]; 10 mM): did not inhibit
–,–,"[Cl-].[Cl-].[Co+2] [Co^2+ (CoCl2), CoCl2]",0.52,108,0.27,208,Effect on enzyme activity ([2]; 1 mM): significantly promoted; Effect on enzyme activity ([2]; 10 mM): did not do so
–,–,"[Cl][Cu][Cl] [Cu^2+ (CuCl2), CuCl2]",0,0,0,0,Effect on enzyme activity ([2]; concentration not given): inhibited
–,–,"O=C(O)CN(CCN(CC(=O)O)CC(=O)O)CC(=O)O [EDTA.2Na, reference compound]",–,–,–,–,"Effect on enzyme activity [2]: inhibited; Specific activity (%), concentration 1 mM [2]: 0%; Specific activity (%), concentration 10 mM [2]: 0%; Methionine produced, concentration 1 mM ([2]; pH 7.5): 0 mM; Methionine produced, concentration 10 mM ([2]; pH 7.5): 0 mM"
–,–,"[Cl][Fe][Cl] [F^e2+ (FeCl2), FeCl2]",0.13,0,0,52,–
–,–,"[Cl][Hg][Cl] [Hg^2+ (HgCl2), HgCl2]",0,0,0,0,Effect on enzyme activity ([2]; concentration not given): inhibited
–,–,"[Cl-].[K+] [K^+ (KCl), KCl]",0.13,84,0.21,52,–
–,–,"[Cl-].[Cl-].[Mg+2] [Mg^2+ (MgCl2), MgCl2]",0.32,92,0.32,128,–
–,–,"[Cl][Mn][Cl] [Mn^2+ (MnCl2), MnCl2]",0.24,0,0,96,–
acted somewhat,16,CC(=O)N[C@H](C)C(=O)O [N-acetyl-D-alanine],–,–,–,–,–
acted somewhat,19,CC(=O)N[C@H](CC(N)=O)C(=O)O [N-acetyl-D-asparagine],–,–,–,–,–
acted well,78,CC(=O)N[C@H](CC(C)C)C(=O)O [N-acetyl-D-leucine],–,–,–,–,–
acted well,100,CSCC[C@@H](NC(C)=O)C(=O)O [N-acetyl-D-methionine],–,–,–,–,–
acted somewhat,36,CC(=O)N[C@H](Cc1ccccc1)C(=O)O [N-acetyl-D-phenylalanine],–,–,–,–,–
acted somewhat,54,CC(=O)N[C@H](Cc1c[nH]c2ccccc12)C(=O)O [N-acetyl-D-tryptophan],–,–,–,–,–
–,33,CC(=O)N[C@@H](C(=O)O)C(C)C [N-acetyl-D-valine],–,–,–,–,–
did not act,0,CC(=O)N[C@@H](CC(C)C)C(=O)O [N-acetyl-L-leucine],–,–,–,–,–
did not act,0,CSCC[C@H](NC(C)=O)C(=O)O [N-acetyl-L-methionine],–,–,–,–,–
did not act,0,CC(=O)N[C@H](C(=O)O)C(C)C [N-acetyl-L-valine],–,–,–,–,–
–,–,"CCN1C(=O)C=CC1=O [N-ethyl-maleimide, reference compound]",–,–,–,–,"Specific activity (%), concentration 1 mM [2, 8]: 45%; Methionine produced, concentration 1 mM [2, 9]: 0.1 mM; Specific activity (%), concentration 10 mM [2, 10]: 0%; Methionine produced, concentration 10 mM [2, 11]: 0 mM"
–,–,"[Cl-].[Na+] [Na^+ (NaCl), NaCl]",–,–,–,–,"Specific activity (%), concentration 1 mM [2]: 84%; Specific activity (%), concentration 10 mM [2]: 152%; Methionine produced, concentration 1 mM ([2]; pH 7.5): 0.21 mM; Methionine produced, concentration 10 mM ([2]; pH 7.5): 0.36 mM"
–,–,"[Cl][Ni][Cl] [Ni^2+ (NiCl2), NiCl2]",0.12,68,0.17,48,–
–,–,"O=C(O)c1cc[c]([Hg][Cl])cc1 [PCMB, p-chloromercuribenzoic acid, reference compound]",–,–,–,–,"Effect on enzyme activity ([2]; concentration not given): inhibited; Specific activity (%), concentration 1 mM [2, 8]: 0%; Methionine produced, concentration 1 mM [2, 9]: 0 mM; Specific activity (%), concentration 10 mM [2, 10]: 0%; Methionine produced, concentration 10 mM [2, 11]: 0 mM"
–,–,"[Cl-].[Cl-].[Zn+2] [Zn^2+ (ZnCl2), ZnCl2]",0,0,0,0,–
–,–,"OC(CS)C(O)CS (stereo not drawn) [dothiothreito, reference compound]",–,–,–,–,"Specific activity (%), concentration 1 mM [2, 8]: 77%; Methionine produced, concentration 1 mM [2, 9]: 0.17 mM; Specific activity (%), concentration 10 mM [2, 10]: 68%; Methionine produced, concentration 10 mM [2, 11]: 0.15 mM"
–,–,"O=C(O)CI [iodoactate, iodoacetate, reference compound]",–,–,–,–,"Effect on enzyme activity [2]: inhibited; Specific activity (%), concentration 1 mM [2]: 64%; Specific activity (%), concentration 10 mM [2]: 50%; Methionine produced, concentration 1 mM ([2]; pH 7.5): 0.14 mM; Methionine produced, concentration 10 mM ([2]; pH 7.5): 0.11 mM"
